In patent publication US20210308188A1, “CELL CLUSTER INCLUDING OLFACTORY NEURON OR PRECURSOR CELL THEREOF, AND METHOD FOR PRODUCING SAME” (SUMITOMO CHEMICAL COMPANY, LIMITED, priority 2018, published 2021):

How the values were obtained:
Format in all cases: cell-based
[1] = test system: human iPS cells; assay: Cell cluster production with EGF and second Wnt signaling pathway inhibitory substance (Experiment 6); conditions: EGF 20 ng/ml added on day 13 and XAV939 300 nM on day 17 (both added); day 28
Method: In Experiment 6, as shown in the upper section of FIG. 17, a cell cluster including an olfactory receptor neuron or a precursor cell thereof was produced by performing step (3c) as step (3) from the beginning, adding EGF from the middle of step (3c), and then culturing in the presence of XAV939 as a second Wnt signaling pathway inhibitory substance. The same manipulations as in Experiment 3 were performed except for those specifically indicated.
Specifically, steps (a), (1) and (2) were started with maintenance-cultured human iPS cells, and then, on day 3 after the start of suspension culturing, the medium was half exchanged with a serum-free medium being free of Y27632 and BMP4 and containing IWP-2, SB-431542, FGF2, Heparin Sodium and K02288 (start of step (3c)). FGF2, Heparin Sodium, and K02288 were included to be final concentrations in the well of 20 ng/ml, 10 μg/ml, and 1 μM, respectively. Thereafter, on days 6 and 10 after the start of suspension culturing, the medium was half exchanged with a serum-free medium being free of Y27632 and BMP4 and containing IWP-2, SB-431542, FGF2, Heparin Sodium and K02288. In addition, on day 13 after the start of suspension culturing, in addition to the above factors, EGF (manufactured by PrimeGene Co., Ltd.) was added to be a final concentration of 20 ng/ml. […]

[2] = test system: human iPS cell line HC-6 #10; assay: Combination use of Wnt signaling pathway-activating substance and inhibitory substance in cell cluster production (Experiment 14)
Description: Cell clusters were produced in accordance with the procedures shown in the upper section of FIG. 28 by using Wnt signaling pathway-activating substance and inhibitory substance in combination. Human iPS cells (HC-6 #10 cell line, obtained from the Institute of Physical and Chemical Research) were subjected to maintenance culturing and step (a) in the same manner as in Experiment 1. The suspension culturing was started on a 96-well culture plate in the same manner as in Experiment 1, except that the number of cells per well was 9×10^3 cells. At the start of suspension culturing (day 0 after the start of suspension culturing, start of step (1)), Y27632 (final concentration 20 μM), IWP-2 (final concentration 2 μM), and SB-431542 (final concentration 1 μM) were added to the serum-free medium. In addition, CHIR99021 (manufactured by Cayman Chemical, Inc.) was added as a Wnt signaling pathway-activating substance such that the final concentration was 300 nM. When the Wnt signaling pathway inhibitory substance IWP-2 and the Wnt signaling pathway-activating substance CHIR99021 are used in combination, β-catenin-dependent Wnt Canonical Pathway is activated and β-catenin-independent Wnt-non-Canonical Pathway is inhibited. On day 2 after the start of suspension culturing, a serum-free medium being free of Y27632 and containing SB-431542, BMP4, IWP-2 and CHIR99021 was added at 100 μl per well (start of step (2)). BMP4 was added to the medium at 3 nM to be a final concentration in the well of 1.5 nM. On day 3 after the start of suspension culturing, the medium was half exchanged with a serum-free medium being free of Y27632 and BMP4 and containing IWP-2, SB-431542, FGF2 and CHIR99021 (start of step (3a)). Thereafter, on days 6 and 10 after the start of suspension culturing, the medium was half exchanged with a serum-free medium being free of Y27632 and BMP4 and containing IWP-2, SB-431542, FGF2, CHIR99021, and K02288 (start of step (3c)). […]

[3] = test system: human iPS cells; assay: Study for first Wnt signaling pathway inhibitory substance in cell cluster production (Experiment 9); conditions: added from start of suspension culturing (IWP-2, IWP-3, IWP-4 2 μM; Wnt C-59 20 nM; KY02111 1 μM); BMP4 on day 2; day 28
Method: In Experiment 9, a study of cell cluster production efficiency was performed for the type of the first Wnt signaling pathway inhibitory substance, using human iPS cells. The experiments were performed in accordance with the procedures shown in the upper section of FIG. 22, and the same manipulations as in Experiment 3 were performed except for those specifically indicated. The suspension culturing of the human iPS cells subjected to maintenance culturing and step (a) was started in a medium supplemented with a first Wnt signaling pathway inhibitory substance, Y27632 (final concentration 20 μM) and SB-431542 (final concentration 1 μM).
As the first Wnt signaling pathway inhibitory substance, IWP-2 (manufactured by Tocris Biosciences, final concentration 2 μM), IWP-3 (manufactured by Cayman Chemicals, final concentration 2 μM), IWP-4 (manufactured by Cayman Chemicals, final concentration 2 μM), Wnt C-59 (manufactured by Cayman Chemicals, final concentration 20 nM), or KY02111 (manufactured by Cayman Chemicals, final concentration 1 μM) was used. As a control in which the first Wnt signaling pathway inhibitory substance was not added, DMSO was added.
On day 2 after the start of suspension culturing, a serum-free medium being free of Y27632 and containing each first Wnt signaling pathway inhibitory substance, SB-431542 and BMP4 (final concentration 1.5 nM) was added at 100 μl per well. In addition, on day 3 after the start of suspension culturing, the medium was half exchanged with a serum-free medium being free of Y27632 and BMP4 and containing SB-431542, K02288, FGF2, Heparin Sodium, and EGF. K02288, FGF2, Heparin Sodium, EGF were included to final concentrations in the well were 10 μM, 20 ng/ml, 10 μg/ml and 20 ng/ml, respectively. On days 6, 10, 13, 17, 21, and 24 after the start of suspension culturing, the medium was half exchanged with a serum-free medium being free of Y27632 and BMP4 and containing each first Wnt signaling pathway inhibitory substance, SB-431542, K02288, FGF2, Heparin Sodium, and EGF.
On day 28 after the start of suspension culturing, bright-field observation was performed with an inverted microscope (FIGS. 22A to 22F).
The cell clusters on day 28 after the start of suspension culturing were subjected to immunofluorescence staining in accordance with the same method as in Comparative Experiment 1. As primary antibodies, an anti-Six1 antibody and an anti-pan-cytokeratin antibody staining placode and non-neural epithelial tissues, and an anti-Sox2 antibody staining placode and neural cells, described in Table 1, were used. As fluorescently labeled secondary antibodies, an Alexa488-labeled donkey anti-rabbit antibody, a CF555-labeled donkey anti-goat antibody, and an Alexa647-labeled donkey anti-mouse antibody, described in Table 2, were used to perform multiple staining. Hoechst 33342 was used for contrast staining of the nucleus. The positive and negative determinations of the staining results were performed in the same manner as in Preliminary Experiment 1.
Under the conditions in which the first Wnt signaling pathway inhibitory substance was not added, no non-neural epithelial tissue was formed on the surface of the cell aggregate even when BMP4 was added on day 2 after the start of suspension culturing.

[4] = CHIR99021 300 nM added together with IWP-2 2 μM, day 21

Molecule | formation of aggregates having non-neural epithelial tissues on the surface [3] | other results
O=c1[nH]c(-c2ccc(C(F)(F)F)cc2)nc2c1CSCC2 [3,5,7,8-Tetrahydro-2-[4-(trifluoromethyl)phenyl]-4H-thiopyrano[4,3-d]pyrimidin-4-one] | – | stability of non-neural epithelial tissue part including olfactory receptor neuron or precursor cell versus conditions without addition [1]: more stable
Cc1c[nH]c(-c2cnc(NCCNc3ccc(C#N)cn3)nc2-c2ccc(Cl)cc2Cl)n1 [CHIR99021] | – | formation of olfactory epithelial-like tissue on the external of the cell cluster [2, 4]: formed an olfactory epithelial-like tissue on the external of the cell cluster; number of dead cells in neural tissues inside of the cell clusters [2, 4]: reduced; extent of CHIR99021 at which Wnt-Canonical Pathway activity promotes survival of nervous tissues inside of the cell cluster and epithelial formation ([2]; combination with IWP-2): ≤ 3 µM
Cc1ccc2nc(NC(=O)CSc3nc4c(c(=O)n3-c3ccccc3)SCC4)sc2c1 [IWP-2, N-(6-Methyl-2-benzothiazolyl)-2-[(3,4,6,7-tetrahydro-4-oxo-3-phenylthieno[3,2-d]pyrimidin-2-yl)thio]-acetamide] | aggregates having non-neural epithelial tissues on the surface were formed | –
Cc1ccc2nc(NC(=O)CSc3nc4c(c(=O)n3-c3ccc(F)cc3)SCC4)sc2c1 [IWP-3, 2-[[3-(4-fluorophenyl)-3,4,6,7-tetrahydro-4-oxothieno[3,2-d]pyrimidin-2-yl]thio]-N-(6-methyl-2-benzothiazolyl)-acetamide] | aggregates having non-neural epithelial tissues on the surface were formed | –
COc1ccccc1-n1c(SCC(=O)Nc2nc3ccc(C)cc3s2)nc2c(c1=O)SCC2 [IWP-4, N-(6-methyl-2-benzothiazolyl)-2-[[3,4,6,7-tetrahydro-3-(2-methoxyphenyl)-4-oxothieno[3,2-d]pyrimidin-2-yl]thio]-acetamide] | aggregates having non-neural epithelial tissues on the surface were formed | –
COc1ccc(CCC(=O)Nc2nc3ccc(Cl)cc3s2)cc1OC [KY02111, N-(6-Chloro-2-benzothiazolyl)-3,4-dimethoxybenzenepropanamide] | aggregates having non-neural epithelial tissues on the surface were formed | –
Cc1cc(-c2ccc(CC(=O)Nc3ccc(-c4cccnc4)cc3)cc2)ccn1 [Wnt C-59, 2-[4-(2-Methylpyridin-4-yl)phenyl]-N-[4-(pyridin-3-yl)phenyl]acetamide] | aggregates having non-neural epithelial tissues on the surface were formed | –
EGF: EGF signaling pathway-activating substance, manufactured by PrimeGene (NSDSECPLSHDGYCLHDGVCMYIEALDKYACNCVVGYIGERCQYRDLKWWELR; Epidermal growth factor; UniProt P01133 971-1023, looked up) | – | stability of non-neural epithelial tissue part including olfactory receptor neuron or precursor cell versus conditions without addition [1]: more stable
